Experimental data published in patent US20030186814A1, “Enhanced herbicide composition” (Valent BioSciences Corporation, priority 2002, published 2003).
Where a name gives a salt, the structure may show the parent alone.

Tests used:
NK S2676 Soybean = assay: Phytotoxicity rating after foliar spray, Roundup Ready soybean; conditions: Table 5, glyphosate-tolerant crop, n = 4 plants
Procedure: (§1) In all experiments, deionized ultra-pure water was used in preparing solutions. Spray solutions were used as soon as possible after mixing.
(§2) COC was added to all spray solutions at a rate of 0.10% (v/v). For all treatments containing both an herbicide and a salicylate, these materials were mixed and applied in a single spray solution (commonly known as a tank mix). After spraying, plants were moved to the greenhouse and arranged in a randomized complete block experimental design. Plants were evaluated for phytotoxicity/herbicidal effects after spraying by assessing damage according to the following scale:
(§3) 5=100% leaf area affected (dead)
(§4) All the data were subject to an analysis of variance, and the mean separations were determined with Duncan's multiple range test at α=0.05.
Roundup Ready crops are tolerant to glyphosate. This tolerance is conferred by genetic modification of the crop species by the insertion of a glyphosate-insensitive EPSP synthase.

Lambsquarters = assay: Phytotoxicity rating after foliar spray, Lambsquarters; type: in vivo, Chenopodium album (lambsquarter); conditions: Table 4, alone or with 5 mM NaSA, COC 0.1%, mean rating 1-5, n = 6 plants
Procedure: as §1, §2, §3, §4

Giant Foxtail = assay: Phytotoxicity rating after foliar spray, Giant Foxtail; type: in vivo, Setaria faberi (giant foxtail); conditions: Table 3; glyphosate 0.2% (v/v), alone or with 5 mM NaSA; COC 0.1%; mean rating 1-5; n = 5 plants
Procedure: as §1, §2, §3, §4

tobacco = assay: Phytotoxicity rating after foliar spray, tobacco; type: in vivo, Nicotiana tabacum (tobacco); conditions: alone or with 5 mM NaSA, COC 0.1%, mean rating 1-5, n = 5 plants
Procedure: as §1, §2, §3, §4

[1] = glyphosate 0.1% (v/v) + COC 0.1%, mean rating 1-5
[2] = Table 2, glyphosate or Roundup 0.2% (v/v glyphosate)

## O=C(O)CNCP(=O)(O)O [Glyphosate, N-(phosphonomethyl)glycine, monoisopropylamine salt]
NK S2676 Soybean; [1]
  Phytotoxicity at 1d: 1.6 BC
  Phytotoxicity at 4d: 1.8 BC
  Phytotoxicity at 6d: 1.9 C
  Phytotoxicity at 11d: 1.9 D
Lambsquarters; glyphosate 0.004%
  Phytotoxicity at 3d: 1.0 A
  Phytotoxicity at 7d: 1.3 AB
  Phytotoxicity at 11d: 1.3 AB
Lambsquarters; glyphosate 0.02%
  Phytotoxicity at 3d: 1.0 A
  Phytotoxicity at 7d: 1.5 ABC
  Phytotoxicity at 11d: 2.1 BC
Lambsquarters; glyphosate 0.04%
  Phytotoxicity at 3d: 1.0 A
  Phytotoxicity at 7d: 1.6 BC
  Phytotoxicity at 11d: 2.4 C
Lambsquarters; glyphosate 0.2% (v/v)
  Phytotoxicity at 3d: 1.4 BC
  Phytotoxicity at 7d: 2.4 D
  Phytotoxicity at 11d: 4.0 D
Giant Foxtail
  Phytotoxicity at 8d: 3.8 A
  Phytoxicity at 6d: 2.0 B
  Phytoxicity at 11d: 4.9 B
tobacco; Table 1, glyphosate 0.04%
  Phytotoxicity at 4d: 1.2 A
  Phytotoxicity at 6d: 1.7 BC
  Phytotoxicity at 8d: 2 B
  Phytotoxicity at 11d: 3.1 B
  Phytotoxicity at 14d: 3.6 B
tobacco; Table 1, glyphosate 0.2% (v/v)
  Phytotoxicity at 4d: 1.5 B
  Phytotoxicity at 6d: 2.2 CD
  Phytotoxicity at 8d: 3.1 D
  Phytotoxicity at 11d: 4.1 D
  Phytotoxicity at 14d: 4.9 C
tobacco; [2]
  Phytotoxicity at 5f: 1.5 BC
  Phytotoxicity at 2d: 1.3 B
  Phytotoxicity at 8d: 3.3 C
  Phytotoxicity at 13d: 4.9 B

## O=C([O-])c1ccccc1O.[Na+] [NaSA, sodium salicylate]
NK S2676 Soybean; NaSA 5 mM + COC 0.1%, mean rating 1 = no damage to 5 = dead
  Phytotoxicity at 4d: 1.5 B
